Source: patent US20030054520A1, “Recombinant enzymes having improved NAD (H) affinity” (DEGUSSA AG, priority 2000, published 2003)

Each molecule was assayed on G38D mutein (assay: Substrate spectrum: photometric reduction of keto substrates with NADH). Conditions: relative to acetophenone; 10 mM keto substrate, 0.4 mM NADH, pH 7.0, 30° C.
Type: biochemical
Description: It is known that the NADP(H)-dependent wild-type enzyme can reduce numerous ketones, keto esters and other carbonyl-groupcontaining compounds stereospecifically. Hereinafter, only a few selected keto compounds are tested as substrates, in order to confirm that the substrate-recognition region has not been changed in principle by the change of coenzyme binding site. For this purpose the keto compounds are tested in the following mixture (total volume of 1 ml).
10 mM keto substrate; 1 MM MgCl2.6H2O; 0.4 mM NADH; 960 μl of triethanolamine buffer, 50 mM, pH 7.0; 10 μl of enzyme (G38D mutein); partly purified (phenylsepharose; see above).
The activity is determined photometrically at 340 nm (30° C.). The following table summarizes the activity values.

Row | Structure (SMILES) | Activity, relative
1 | CCCCCC(C)=O [2-Heptanone] | 207%
2 | CCOC(=O)CC(C)=O [Acetoacetic acid ethyl ester] | 88%
3 | CCOC(=O)C(=O)CCc1ccccc1 [Benzyl pyruvate ethyl ester] | 13%
4 | COC(=O)C(C)=O [Pyruvic acid methyl ester] | 191%
5 | CC1CCCCC1=O (stereo not drawn) [2-Methylcyclohexanone] | 334%
6 | CCOC(=O)C(=O)CC [2-Oxobutyric acid ethyl ester] | 137%
7 | CCC(=O)CC(=O)OC [3-Oxovaleric acid methyl ester] | 127%
8 | COC(=O)CC(C)=O [Acetoacetic acid methyl ester] | 188%
9 | CCOC(=O)C(C)=O [Pyruvic acid ethyl ester] | 260%
10 | CC(=O)c1ccc(Cl)cc1 [4-chloroacetophenone] | 68%
11 | COC(=O)C(=O)c1ccccc1 [Phenylglyoxylic acid methyl ester] | 10%
12 | CCOC(=O)CC(=O)CCl [4-Chloroacetoacetic acid ethyl ester] | 228%
13 | CCOC(=O)C(=O)C(C)C [3-Methyl-2-oxobutyric acid ethyl ester] | 84%
14 | CC(=O)c1ccccc1 [Acetophenone] | 100%
15 | CCCCC(C)=O [2-Hexanone] | 169%
